Source: ChEMBL document CHEMBL1201862, “PubChem BioAssay data set” (2004)
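Cultured in 96-well plates, cells were exposed to test compound for 48 hours across five concentrations. GI50 = concentration required for 50% inhibition of growth.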 Calls of active or inactive are those of the source. No stated cut-off is given here; in the data, active = GI50 up to about 1.1 µM and inactive = higher. Square brackets hold non-standard residues; d marks the D form. Peptide text beside a SMILES is read from it. * marks the point of attachment. X26 = COC1=CC(=O)N(C(=O)[C@@H](O*)C(C)C)[C@H]1Cc1ccccc1; NMeV = CN[C@H](C(=O)O)C(C)C; Hexanoyl = CCCCCC(=O)*

What was measured:
Experiment in all cases: inhibition of tumour cell growth, NCI panel, 48 h
786-0 = tested on: 786-0
A498 = tested on: A498
A549 = tested on: A549
ACHN = tested on: ACHN
CAKI-1 = tested on: CAKI-1
DU-145 = tested on: DU-145
HCT-116 = tested on: HCT-116
HOP-62 = tested on: HOP-62
IGROV-1 = tested on: IGROV-1
M14 = tested on: M14
NCI-H226 = tested on: NCI-H226
NCI-H23 = tested on: NCI-H23
OVCAR-3 = tested on: OVCAR-3
OVCAR-4 = tested on: OVCAR-4
RPMI-8226 = tested on: RPMI-8226
SK-MEL-28 = tested on: SK-MEL-28
SK-OV-3 = tested on: SK-OV-3
TK-10 = tested on: TK-10
UACC-257 = tested on: UACC-257
UACC-62 = tested on: UACC-62

Measured: GI50

O=C(COc1ccc(OCC(=O)N2C(=O)CC/C2=N\c2ccc(Cl)cc2)cc1)N1C(=O)CS/C1=N\c1ccc(Cl)cc1
inactive: 786-0 > 100 µM | A498 > 100 µM | A549 26.4 µM | ACHN 49.8 µM | CAKI-1 > 100 µM | DU-145 > 100 µM | HCT-116 93.8 µM | HOP-62 73.1 µM | IGROV-1 47.6 µM | M14 89.7 µM | NCI-H226 > 100 µM | NCI-H23 42 µM | OVCAR-3 61.2 µM | OVCAR-4 75.3 µM | RPMI-8226 46.1 µM | SK-MEL-28 > 100 µM | SK-OV-3 > 100 µM | TK-10 > 100 µM | UACC-257 56 µM | UACC-62 > 100 µM

CCOC(=O)c1cn2c(n1)sc1c(Cl)c(Cl)ccc12
inactive: 786-0 7.66 µM | A498 20.6 µM | A549 15.1 µM | ACHN 15.3 µM | CAKI-1 9.86 µM | DU-145 18.1 µM | HCT-116 5.69 µM | HOP-62 15.5 µM | IGROV-1 13.8 µM | M14 9.38 µM | NCI-H226 14.8 µM | NCI-H23 29.4 µM | OVCAR-3 11.1 µM | OVCAR-4 46.6 µM | RPMI-8226 5.02 µM | SK-MEL-28 20.8 µM | SK-OV-3 > 51.8 µM | TK-10 24.4 µM | UACC-257 28.2 µM | UACC-62 20.2 µM

CCCCCC(=O)N[C@H](C(=O)N[C@H](C(=O)N(C)[C@H](C(=O)N1CCC[C@H]1C(=O)N1CCC[C@H]1C(=O)O[C@H](C(=O)N1C(=O)C=C(OC)[C@@H]1Cc1ccccc1)C(C)C)C(C)C)C(C)C)C(C)C (Hexanoyl-VV[NMeV]PP-X26)
inactive: 786-0 57.9 µM | A498 46.3 µM | ACHN > 100 µM | CAKI-1 > 100 µM | DU-145 > 100 µM | HCT-116 48.2 µM | HOP-62 > 100 µM | IGROV-1 > 100 µM | NCI-H226 > 100 µM | NCI-H23 > 100 µM | OVCAR-3 > 100 µM | OVCAR-4 > 100 µM | RPMI-8226 84.1 µM | SK-MEL-28 > 100 µM | SK-OV-3 > 100 µM | TK-10 > 100 µM | UACC-257 87.7 µM | UACC-62 82.6 µM

O=C1CCC(C(=O)O)C2=C1CCCC2 (stereo not given)
inactive: 786-0 > 28.6 µM | A498 > 100 µM | A549 > 34 µM | ACHN > 100 µM | CAKI-1 > 100 µM | DU-145 > 100 µM | HCT-116 > 100 µM | HOP-62 > 16.4 µM | IGROV-1 > 100 µM | M14 > 100 µM | NCI-H226 > 14.4 µM | NCI-H23 > 15.5 µM | OVCAR-3 > 100 µM | OVCAR-4 > 100 µM | RPMI-8226 > 100 µM | SK-MEL-28 > 100 µM | SK-OV-3 > 43.4 µM | TK-10 > 100 µM | UACC-257 > 100 µM | UACC-62 > 100 µM

COc1cccc2c(=O)oc(-c3ccccc3C)nc12
inactive: 786-0 44.8 µM | A498 > 100 µM | A549 38.2 µM | ACHN 43 µM | CAKI-1 35.2 µM | DU-145 61 µM | HCT-116 29.5 µM | HOP-62 27.3 µM | IGROV-1 18.7 µM | NCI-H226 19.5 µM | NCI-H23 61.4 µM | OVCAR-3 29 µM | OVCAR-4 22.7 µM | RPMI-8226 38.2 µM | SK-MEL-28 29.3 µM | SK-OV-3 > 100 µM | TK-10 > 100 µM | UACC-62 62.1 µM

O=C(/C=C/c1cccc(Br)c1)N1CCN(CCOC(c2ccccc2)c2ccccc2)CC1
inactive: 786-0 40.1 µM | A498 44.9 µM | A549 43.2 µM | ACHN 57.3 µM | CAKI-1 > 100 µM | DU-145 37.5 µM | HCT-116 29.3 µM | HOP-62 > 100 µM | IGROV-1 81.7 µM | M14 62.2 µM | NCI-H226 45 µM | NCI-H23 42 µM | OVCAR-3 50.5 µM | OVCAR-4 63.2 µM | RPMI-8226 12.2 µM | SK-MEL-28 > 100 µM | SK-OV-3 > 100 µM | TK-10 > 100 µM | UACC-257 63.5 µM | UACC-62 25.9 µM

CC(CC=O)Nc1nn2c(=O)c3ccccc3nc2s1 (stereo not given)
inactive: 786-0 > 100 µM | A498 > 100 µM | A549 > 100 µM | ACHN > 100 µM | CAKI-1 > 100 µM | DU-145 > 100 µM | HCT-116 > 100 µM | HOP-62 > 100 µM | IGROV-1 > 100 µM | M14 > 100 µM | NCI-H226 > 100 µM | NCI-H23 > 100 µM | OVCAR-3 > 100 µM | OVCAR-4 > 100 µM | RPMI-8226 > 100 µM | SK-MEL-28 > 100 µM | SK-OV-3 > 100 µM | TK-10 > 100 µM | UACC-257 > 100 µM | UACC-62 43.1 µM

Cc1cccc2sc(NC(=O)c3cc([N+](=O)[O-])ccc3Cl)nc12
inactive: 786-0 1.89 µM | A498 17.3 µM | A549 3.86 µM | ACHN 5.41 µM | CAKI-1 3.85 µM | DU-145 3.33 µM | HCT-116 2.55 µM | HOP-62 11.8 µM | IGROV-1 2.68 µM | M14 1.77 µM | NCI-H226 5.71 µM | NCI-H23 2.79 µM | OVCAR-3 4.06 µM | OVCAR-4 8.51 µM | RPMI-8226 3.31 µM | SK-MEL-28 5.22 µM | SK-OV-3 13.1 µM | TK-10 2.59 µM | UACC-257 6.84 µM | UACC-62 3.61 µM

C=C(Br)CNC(=O)Nc1ccc(Cl)c(Cl)c1
inactive: 786-0 16 µM | A498 9.12 µM | A549 21.5 µM | ACHN 17.5 µM | CAKI-1 20.4 µM | DU-145 23.6 µM | HCT-116 17.1 µM | HOP-62 22.5 µM | IGROV-1 13.6 µM | M14 22.2 µM | NCI-H226 25.4 µM | NCI-H23 15.6 µM | OVCAR-3 13.4 µM | OVCAR-4 29.5 µM | RPMI-8226 17.3 µM | SK-MEL-28 28.1 µM | SK-OV-3 29 µM | TK-10 25.8 µM | UACC-62 18.8 µM

COc1ccc(Nc2nc3ccc(C(F)(F)F)cc3nc2C(=O)O)cc1
inactive: 786-0 44.8 µM | A498 16.7 µM | A549 29.4 µM | CAKI-1 46.8 µM | DU-145 49.1 µM | HCT-116 34.7 µM | HOP-62 35.5 µM | IGROV-1 17.1 µM | M14 36.4 µM | NCI-H226 20.6 µM | NCI-H23 20.6 µM | OVCAR-3 19.9 µM | OVCAR-4 47.8 µM | RPMI-8226 12.1 µM | SK-MEL-28 30.6 µM | SK-OV-3 20.4 µM | TK-10 30.3 µM | UACC-257 32.6 µM | UACC-62 19.1 µM

COc1cc(S(=O)(=O)N/N=C/c2cc(Br)c(O)c(OC)c2)c(OC)cc1NC(C)=O
inactive: 786-0 27 µM | A498 > 100 µM | A549 > 100 µM | ACHN 78.3 µM | CAKI-1 91 µM | DU-145 85.9 µM | HCT-116 30.6 µM | HOP-62 > 100 µM | IGROV-1 50.8 µM | M14 > 100 µM | NCI-H226 > 100 µM | NCI-H23 > 100 µM | OVCAR-3 92 µM | OVCAR-4 69.3 µM | RPMI-8226 47.2 µM | SK-MEL-28 > 100 µM | SK-OV-3 > 100 µM | TK-10 77.3 µM | UACC-257 > 100 µM

OCC1OC(n2cnc3c(Cl)nc(Nc4ccc(Cl)c(Cl)c4)nc32)CC1O (stereo not given)
inactive: 786-0 8.73 µM | A498 10.7 µM | A549 14.2 µM | ACHN 8.69 µM | CAKI-1 16.3 µM | DU-145 11.6 µM | HCT-116 11 µM | HOP-62 10.5 µM | IGROV-1 11.9 µM | M14 10.7 µM | NCI-H226 8.15 µM | NCI-H23 10.2 µM | OVCAR-3 12.2 µM | OVCAR-4 10.1 µM | RPMI-8226 8.13 µM | SK-OV-3 13.6 µM | TK-10 8.36 µM | UACC-257 9.48 µM | UACC-62 8.73 µM

C#CC(O)/C=C/C(O)CCCC(O)CC#CC(O)C#CCCCCC(O)/C=C/CCCC(O)/C=C/CCCCCCCCCCCCCC(O)C(O)C#CC(=O)O (stereo not given)
inactive: 786-0 > 25 µM | A498 > 25 µM | A549 > 25 µM | ACHN > 25 µM | CAKI-1 > 25 µM | DU-145 > 25 µM | HCT-116 > 25 µM | HOP-62 > 25 µM | IGROV-1 > 25 µM | M14 > 25 µM | NCI-H226 > 25 µM | NCI-H23 > 25 µM | OVCAR-4 > 25 µM | RPMI-8226 > 25 µM | SK-MEL-28 > 25 µM | SK-OV-3 > 25 µM | TK-10 > 25 µM | UACC-257 > 25 µM | UACC-62 > 25 µM

CC(C)(C)N1C=[N+](C(C)(C)C)CC1
inactive: 786-0 > 100 µM | A498 38.7 µM | A549 > 100 µM | ACHN > 100 µM | CAKI-1 > 100 µM | DU-145 > 100 µM | HCT-116 > 100 µM | HOP-62 > 100 µM | IGROV-1 > 100 µM | M14 > 100 µM | NCI-H226 > 100 µM | NCI-H23 > 100 µM | OVCAR-3 > 100 µM | OVCAR-4 > 100 µM | RPMI-8226 > 100 µM | SK-MEL-28 > 100 µM | SK-OV-3 > 100 µM | TK-10 > 100 µM | UACC-257 > 100 µM
